Experimental data: ChEMBL document CHEMBL1201862, “PubChem BioAssay data set” (2004)
Each block holds one molecule with its values, some of them ahead of it. The source made the active and inactive calls.

Legend:
cells [1] = type: functional, cell-based
[2] = target: T1, Nuclear receptor subfamily 0 group B member 1 (Homo sapiens, UniProt P51843); type: functional, cell-based;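 note: HEK293T cells transfected with SF-1 and DAX-1 plus StAR promoter luciferase reporter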
T1 sequence (P51843 whole entry): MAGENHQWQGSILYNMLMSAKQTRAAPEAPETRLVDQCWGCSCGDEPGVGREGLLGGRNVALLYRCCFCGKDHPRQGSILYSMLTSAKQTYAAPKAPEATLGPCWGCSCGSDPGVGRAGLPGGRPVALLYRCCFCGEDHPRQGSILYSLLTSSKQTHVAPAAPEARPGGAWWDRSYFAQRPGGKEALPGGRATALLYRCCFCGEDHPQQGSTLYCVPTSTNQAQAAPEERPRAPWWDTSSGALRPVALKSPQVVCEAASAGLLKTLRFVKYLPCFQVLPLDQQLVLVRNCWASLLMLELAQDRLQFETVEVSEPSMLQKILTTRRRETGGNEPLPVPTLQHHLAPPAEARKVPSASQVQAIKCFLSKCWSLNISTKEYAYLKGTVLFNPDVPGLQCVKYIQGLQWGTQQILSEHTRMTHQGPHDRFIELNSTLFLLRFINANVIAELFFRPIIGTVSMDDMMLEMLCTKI

[3] = target: T2, Heat shock factor protein 1 (Mus musculus, UniProt P38532); experiment: decrease of HSF1-responsive luciferase luminescence – cell-based, NIH3T3, dose retest, confirmation (AID 2382); type: functional;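 note: NIH3T3 fibroblasts with HSF1-driven luciferase reporter stressed by proteasome inhibitor MG132; luminescence from HSF1-driven luciferase expression after 8 hours of MG132 stress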
T2 sequence (P38532 whole entry): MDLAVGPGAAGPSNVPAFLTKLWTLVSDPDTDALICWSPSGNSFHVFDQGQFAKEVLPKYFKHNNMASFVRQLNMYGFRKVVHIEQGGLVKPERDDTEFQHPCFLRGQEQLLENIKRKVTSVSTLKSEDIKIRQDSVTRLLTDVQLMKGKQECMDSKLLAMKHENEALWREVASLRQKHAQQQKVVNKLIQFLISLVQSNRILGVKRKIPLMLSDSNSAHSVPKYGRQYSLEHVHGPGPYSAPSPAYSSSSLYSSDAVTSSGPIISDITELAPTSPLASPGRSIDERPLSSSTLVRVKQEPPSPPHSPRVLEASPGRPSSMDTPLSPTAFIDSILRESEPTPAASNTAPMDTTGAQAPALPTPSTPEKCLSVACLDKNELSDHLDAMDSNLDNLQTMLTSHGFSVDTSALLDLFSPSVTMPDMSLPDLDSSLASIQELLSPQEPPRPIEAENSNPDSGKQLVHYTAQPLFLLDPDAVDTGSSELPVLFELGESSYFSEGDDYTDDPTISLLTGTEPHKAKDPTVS

[4] = target: T3, DNA repair protein RAD52 homolog (Homo sapiens, UniProt P43351); type: functional, biochemical
T3 sequence (P43351 whole entry): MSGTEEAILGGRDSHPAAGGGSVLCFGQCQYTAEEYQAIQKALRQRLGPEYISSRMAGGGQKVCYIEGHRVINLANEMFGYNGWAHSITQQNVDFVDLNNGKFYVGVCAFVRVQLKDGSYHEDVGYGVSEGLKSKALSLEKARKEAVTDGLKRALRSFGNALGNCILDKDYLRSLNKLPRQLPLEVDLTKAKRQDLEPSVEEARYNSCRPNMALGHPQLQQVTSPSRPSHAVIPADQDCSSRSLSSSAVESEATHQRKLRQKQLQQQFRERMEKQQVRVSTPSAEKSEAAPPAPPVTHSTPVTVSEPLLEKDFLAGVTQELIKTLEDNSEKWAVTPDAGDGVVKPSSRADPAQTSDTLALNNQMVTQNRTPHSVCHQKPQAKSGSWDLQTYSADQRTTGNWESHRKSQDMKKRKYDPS

Prothrombin = Prothrombin (Homo sapiens, UniProt P00734); experiment: Thrombin 1536 HTS Dose Response Confirmation. [Related pubchem assays: 1046 (Thrombin 1536 HTS; hits were confirmed in this assay)]; type: functional
[5] = general mammalian cell viability loss – inhibitor set, cherry-pick, set 2, cytotoxicity control for miR-122 modulator project, dose response (AID 720697); type: functional, cell-based
[6] = Trypanosoma cruzi growth suppression in host cells – NIH3T3 host cells, beta-gal luminescence, confirmation (AID 2044); type: functional, cell-based;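 note: intracellular parasites grown in NIH/3T3 mouse fibroblasts as host cells; luminescent beta-galactosidase reporter signal from transgenic T. cruzi replicating inside host cells; inhibitors lower the luminescence signal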
[7] = NIH3T3 cell viability loss – ATP luminescence, mouse fibroblasts, counter-screen, dose response (AID 2010); type: functional, cell-based;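 note: cells exposed to compound for about 90 hours before reading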
[8] = target: T4, Rac GTPase-activating protein 1 (Homo sapiens, UniProt Q9H0H5); experiment: blockers of MgcRacGAP-driven Rac1 GTP hydrolysis – biochemical, ADP Hunter fluorescence, primary and confirmatory, confirmation (AID 624330); type: functional
T4 sequence (Q9H0H5 whole entry): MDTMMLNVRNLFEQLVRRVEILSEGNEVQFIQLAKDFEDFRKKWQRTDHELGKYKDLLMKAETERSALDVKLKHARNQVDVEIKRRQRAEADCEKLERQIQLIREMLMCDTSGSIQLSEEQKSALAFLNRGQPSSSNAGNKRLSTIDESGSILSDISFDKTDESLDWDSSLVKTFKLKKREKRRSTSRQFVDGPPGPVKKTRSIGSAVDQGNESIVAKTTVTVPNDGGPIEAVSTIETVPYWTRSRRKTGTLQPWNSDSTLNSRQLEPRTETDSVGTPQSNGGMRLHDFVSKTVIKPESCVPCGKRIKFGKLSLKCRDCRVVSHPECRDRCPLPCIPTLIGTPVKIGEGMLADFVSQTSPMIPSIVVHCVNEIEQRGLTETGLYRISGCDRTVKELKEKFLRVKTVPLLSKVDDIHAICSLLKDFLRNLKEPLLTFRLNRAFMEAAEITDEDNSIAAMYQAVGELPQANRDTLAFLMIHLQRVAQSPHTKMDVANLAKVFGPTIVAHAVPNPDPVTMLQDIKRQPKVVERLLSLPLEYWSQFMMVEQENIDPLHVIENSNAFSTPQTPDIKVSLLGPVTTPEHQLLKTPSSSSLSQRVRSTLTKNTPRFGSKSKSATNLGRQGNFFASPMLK

[9] = target: T5, Histone-lysine N-methyltransferase NSD2 (Homo sapiens, UniProt O96028); type: biochemical
T5 sequence (O96028 whole entry): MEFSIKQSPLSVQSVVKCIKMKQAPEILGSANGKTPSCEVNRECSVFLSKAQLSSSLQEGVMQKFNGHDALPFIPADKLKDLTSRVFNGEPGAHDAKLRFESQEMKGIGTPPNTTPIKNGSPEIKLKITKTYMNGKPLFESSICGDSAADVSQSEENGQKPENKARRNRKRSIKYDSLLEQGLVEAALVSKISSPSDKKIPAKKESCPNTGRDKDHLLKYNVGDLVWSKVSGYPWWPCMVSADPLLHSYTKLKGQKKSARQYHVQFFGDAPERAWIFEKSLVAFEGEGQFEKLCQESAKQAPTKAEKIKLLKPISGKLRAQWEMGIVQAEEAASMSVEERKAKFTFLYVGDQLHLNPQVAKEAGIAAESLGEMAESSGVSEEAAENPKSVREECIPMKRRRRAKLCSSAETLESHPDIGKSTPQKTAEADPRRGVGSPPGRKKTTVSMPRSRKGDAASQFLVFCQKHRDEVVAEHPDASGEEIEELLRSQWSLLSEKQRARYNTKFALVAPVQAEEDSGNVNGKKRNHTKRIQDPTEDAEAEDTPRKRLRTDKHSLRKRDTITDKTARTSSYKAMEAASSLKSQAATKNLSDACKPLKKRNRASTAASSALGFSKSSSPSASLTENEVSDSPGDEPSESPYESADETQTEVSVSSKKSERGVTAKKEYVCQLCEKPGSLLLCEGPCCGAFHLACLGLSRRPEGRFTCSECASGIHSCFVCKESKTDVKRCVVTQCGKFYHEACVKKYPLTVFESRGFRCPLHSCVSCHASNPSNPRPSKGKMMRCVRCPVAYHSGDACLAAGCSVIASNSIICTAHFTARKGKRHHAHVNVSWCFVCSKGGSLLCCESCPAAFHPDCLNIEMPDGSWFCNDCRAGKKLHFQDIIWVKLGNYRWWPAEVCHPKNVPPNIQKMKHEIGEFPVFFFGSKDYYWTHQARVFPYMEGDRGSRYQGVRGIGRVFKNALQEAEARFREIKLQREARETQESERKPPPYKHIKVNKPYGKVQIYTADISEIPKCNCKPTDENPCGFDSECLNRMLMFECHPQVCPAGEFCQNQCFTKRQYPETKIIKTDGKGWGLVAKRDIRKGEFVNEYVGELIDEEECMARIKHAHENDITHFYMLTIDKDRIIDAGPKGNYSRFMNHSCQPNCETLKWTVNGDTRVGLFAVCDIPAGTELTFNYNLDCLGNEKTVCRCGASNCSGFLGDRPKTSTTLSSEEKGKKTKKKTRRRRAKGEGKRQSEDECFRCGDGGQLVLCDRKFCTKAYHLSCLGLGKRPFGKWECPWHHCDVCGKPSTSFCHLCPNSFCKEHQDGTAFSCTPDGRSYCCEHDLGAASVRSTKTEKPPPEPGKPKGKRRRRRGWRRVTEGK

[10] = Luminescence Cell-Based Dose Retest to Confirm Inhibitors of Cancer Stem Cells. [Related pubchem assays (depositor defined):AID2717, AID2721]; type: functional; details: Homo sapiens
[11] = viability of uninfected HEp-2 cells – cell-based, HTS, cytotoxicity control for RSV inhibitor project, dose response (AID 2410); type: functional; details: human respiratory syncytial virus
cells [12] = experiment: cells
[13] = viability of HCT116 lacking mutant beta-catenin – cell-based, human colon tumor, dose response (AID 1045); type: functional;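 note: HCT116 colon tumor cells with beta catenin knocked out; cells exposed to compound for 60 hours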
[14] = viability of PTEN-deleted HCT116 cells – cell-based, HCT116 PTEN knockout, dose response (AID 1047); type: functional;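 note: HCT116 colon tumor cells with PTEN knocked out; cells exposed to compound for 60 hours before readout; potency for loss of cell viability measured by luminescence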
Fatty acid synthase [15] = target: T6, Fatty acid synthase (Homo sapiens, UniProt P49327); experiment: inhibition of human FAS-TE enzyme activity – biochemical, endpoint fluorescence intensity, uHTS hits, dose response (AID 624327); type: functional;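 note: fluorescence from hydrolysis of an O-methyl fluorescein acyl ester substrate by the enzyme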
T6 sequence (P49327 whole entry): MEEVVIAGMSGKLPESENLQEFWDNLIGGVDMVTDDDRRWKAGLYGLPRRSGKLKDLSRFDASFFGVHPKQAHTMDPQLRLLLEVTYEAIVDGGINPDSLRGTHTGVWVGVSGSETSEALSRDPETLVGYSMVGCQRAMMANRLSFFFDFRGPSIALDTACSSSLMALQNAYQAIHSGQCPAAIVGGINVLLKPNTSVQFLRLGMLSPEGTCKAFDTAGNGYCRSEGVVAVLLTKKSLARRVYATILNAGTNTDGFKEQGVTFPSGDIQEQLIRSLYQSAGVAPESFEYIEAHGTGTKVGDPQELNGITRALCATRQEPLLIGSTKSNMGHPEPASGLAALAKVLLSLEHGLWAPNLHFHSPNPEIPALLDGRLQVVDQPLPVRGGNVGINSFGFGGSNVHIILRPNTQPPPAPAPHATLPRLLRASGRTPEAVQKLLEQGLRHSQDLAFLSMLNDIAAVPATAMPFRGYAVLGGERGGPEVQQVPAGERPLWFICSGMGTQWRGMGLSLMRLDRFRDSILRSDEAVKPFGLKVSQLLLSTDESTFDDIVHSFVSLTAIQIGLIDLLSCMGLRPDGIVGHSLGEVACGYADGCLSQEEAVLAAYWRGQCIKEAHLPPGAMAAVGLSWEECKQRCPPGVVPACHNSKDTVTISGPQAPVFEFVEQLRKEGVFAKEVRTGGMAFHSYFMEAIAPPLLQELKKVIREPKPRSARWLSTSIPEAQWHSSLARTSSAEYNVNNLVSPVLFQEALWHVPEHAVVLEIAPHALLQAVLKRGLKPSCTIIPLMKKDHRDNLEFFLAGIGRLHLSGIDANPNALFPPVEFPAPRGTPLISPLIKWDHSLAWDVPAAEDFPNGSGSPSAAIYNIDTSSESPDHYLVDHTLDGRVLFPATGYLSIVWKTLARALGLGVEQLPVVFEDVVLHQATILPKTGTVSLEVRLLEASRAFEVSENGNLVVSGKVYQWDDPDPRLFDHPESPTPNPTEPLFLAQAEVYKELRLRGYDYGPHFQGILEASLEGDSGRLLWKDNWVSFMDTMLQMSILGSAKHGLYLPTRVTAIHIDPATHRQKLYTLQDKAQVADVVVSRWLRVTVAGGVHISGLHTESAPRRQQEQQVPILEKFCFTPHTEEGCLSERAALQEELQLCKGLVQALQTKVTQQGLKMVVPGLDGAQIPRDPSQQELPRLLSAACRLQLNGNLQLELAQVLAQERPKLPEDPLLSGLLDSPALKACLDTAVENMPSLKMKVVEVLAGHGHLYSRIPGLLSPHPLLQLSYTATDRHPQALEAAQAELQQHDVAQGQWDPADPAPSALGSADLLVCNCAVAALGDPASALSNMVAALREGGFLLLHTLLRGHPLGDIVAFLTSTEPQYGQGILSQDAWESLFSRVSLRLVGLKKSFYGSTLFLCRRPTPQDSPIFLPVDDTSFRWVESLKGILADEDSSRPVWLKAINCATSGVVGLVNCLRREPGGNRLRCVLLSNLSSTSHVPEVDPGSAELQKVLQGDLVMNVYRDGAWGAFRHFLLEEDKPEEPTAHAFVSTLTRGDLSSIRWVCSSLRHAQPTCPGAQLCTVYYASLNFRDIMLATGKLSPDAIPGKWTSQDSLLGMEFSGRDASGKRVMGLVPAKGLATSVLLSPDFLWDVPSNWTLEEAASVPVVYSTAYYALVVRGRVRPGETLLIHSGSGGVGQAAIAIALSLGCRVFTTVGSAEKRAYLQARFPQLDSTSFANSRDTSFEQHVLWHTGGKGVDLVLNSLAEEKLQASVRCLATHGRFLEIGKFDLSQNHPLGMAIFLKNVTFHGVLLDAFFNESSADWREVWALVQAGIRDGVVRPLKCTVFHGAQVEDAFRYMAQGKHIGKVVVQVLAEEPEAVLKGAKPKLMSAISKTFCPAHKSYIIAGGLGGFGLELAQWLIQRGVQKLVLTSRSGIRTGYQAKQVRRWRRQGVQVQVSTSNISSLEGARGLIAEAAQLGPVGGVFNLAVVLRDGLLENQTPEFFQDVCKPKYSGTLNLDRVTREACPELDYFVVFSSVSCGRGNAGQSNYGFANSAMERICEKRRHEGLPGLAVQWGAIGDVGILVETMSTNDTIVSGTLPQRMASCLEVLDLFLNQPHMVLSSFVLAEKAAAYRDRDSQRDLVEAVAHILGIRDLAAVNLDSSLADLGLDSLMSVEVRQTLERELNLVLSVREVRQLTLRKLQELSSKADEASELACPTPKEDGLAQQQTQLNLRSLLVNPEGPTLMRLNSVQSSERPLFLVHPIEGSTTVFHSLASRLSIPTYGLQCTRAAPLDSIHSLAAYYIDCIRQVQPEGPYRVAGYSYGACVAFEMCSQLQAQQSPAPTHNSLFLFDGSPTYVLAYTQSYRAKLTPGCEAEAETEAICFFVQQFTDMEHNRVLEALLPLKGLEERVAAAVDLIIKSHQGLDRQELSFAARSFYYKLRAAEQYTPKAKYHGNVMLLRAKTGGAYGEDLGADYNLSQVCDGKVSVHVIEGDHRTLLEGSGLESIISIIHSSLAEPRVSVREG

Fatty acid synthase [16] = target: T6, Fatty acid synthase; experiment: inhibition of human FAS-TE enzyme activity – biochemical, kinetic fluorescence intensity, dose response (AID 624326); type: functional;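 note: rate of fluorescence rise from hydrolysis of a fluorogenic O-methyl fluorescein ester substrate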
Kallikrein-7 = Kallikrein-7 (Homo sapiens, UniProt P49862); experiment: Fluorescence Intensity-based biochemical primary high throughput dose response assay to identify activators of kallikrein-7 (K7) zymogen.
Chain of Kallikrein-7 (P49862 whole entry): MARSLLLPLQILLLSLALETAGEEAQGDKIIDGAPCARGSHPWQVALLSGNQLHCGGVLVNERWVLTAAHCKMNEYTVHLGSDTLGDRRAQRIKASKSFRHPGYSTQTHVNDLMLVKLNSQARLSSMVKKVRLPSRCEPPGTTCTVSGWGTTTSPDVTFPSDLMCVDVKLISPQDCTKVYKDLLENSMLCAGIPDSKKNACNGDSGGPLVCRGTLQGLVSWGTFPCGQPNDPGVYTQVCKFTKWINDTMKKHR

SMILES: COc1ccccc1-c1nnc2n1N=C(c1ccc3c(c1)OCO3)CS2
IC50 (cells [1]): > 67.6 µM (inactive)
IC50 [2]: > 67.6 µM (inactive)

SMILES: CO[C@@H]1CN(C)C(=O)c2cc(NC(=O)c3cccc(Oc4ccccc4)c3)ccc2OC[C@H](C)NC[C@@H]1C
AC50 [5]: 15.1 µM (active)

SMILES: COc1ccccc1C=C1CCc2ccccc2C1=O
IC50 (cells [1]): > 67.5 µM (inactive)
IC50 [2]: > 67.5 µM (inactive)

SMILES: C[n+]1ccc(/C=C/c2ccccc2O)c2ccccc21
EC50 [6]: 0.753 µM (active)
EC50 [7]: > 60 µM (not active)
IC50 [8]: 178 µM (active)
AC50 [9]: > 20 µM (inactive)
AC50 [4]: 19.1 µM (active)

SMILES: OCCCNc1cc(-c2ccccc2)nc2cc(-c3ccc(F)cc3)nn12
AC50 [10]: 6.05 µM (active)
CC50 [11]: > 50 µM (active)
IC50 (cells [12]): 22.4 µM (active)

SMILES: C=CCN(C(=O)Nc1ccc2c(c1)nc(C)n2C)c1ccccc1
IC50 (Prothrombin): > 50 µM (not active)

SMILES: Cc1nn2c(NCCCN(C)C)c3c(nc2c1-c1ccccc1)CCC3
EC50 [6]: 0.625 µM (active)
EC50 [13]: 15.9 µM (active)
EC50 [7]: > 60 µM (not active)
IC50 (Prothrombin): > 50 µM (not active)
EC50 [14]: 15.9 µM (active)

SMILES: CCCC(C)C(=O)Nc1cc([N+](=O)[O-])ccc1Cl (stereo not given)
IC50 (Fatty acid synthase [15]): 12.2 µM (active)
IC50 (Fatty acid synthase [16]): 11.8 µM (active)

SMILES: Cn1cccc1C(=O)NCC1COc2ccccc2O1 (stereo not given)
IC50 (cells [1]): > 67.5 µM (inactive)
IC50 [2]: > 67.5 µM (inactive)

SMILES: O=C(COC(=O)c1cc([N+](=O)[O-])ccc1NCCO)Nc1cccc(S(=O)(=O)N2CCCC2)c1
IC50 (Fatty acid synthase [15]): 6.67 µM (active)
IC50 (Fatty acid synthase [16]): 4.57 µM (active)

SMILES: COc1ccc2c(c1)CCC/C2=N\NC(=O)c1ccoc1C
IC50 (cells [1]): > 67.5 µM (inactive)
IC50 [2]: > 67.5 µM (inactive)

SMILES: c1ccc(CCCNCCCn2cnc3c(OCc4ccccc4)ncnc32)cc1
AC50 [5]: 7.5 µM (active)

SMILES: CCOc1cc(-c2nccc3cc(OC)c(OC)cc23)cc(OCC)c1OCC [OCTAVERINE]
AC50 [5]: 1.89 µM (active)

SMILES: Cc1cc(C(C)(C)C)cc(C)c1COC(=O)CN1C(=O)NC2(CCCC2)C1=O
IC50 (Fatty acid synthase [15]): 15.8 µM (active)
IC50 (Fatty acid synthase [16]): 13.2 µM (active)

Results, then the molecule that gave them:

EC50 [3]: > 195 µM (not active)
AC50 [4]: 8.66 µM (active)
SMILES: Cc1cc(-n2c(C)c3c(C)nnc(C)c3c2C)ccc1N

IC50 (Prothrombin): > 50 µM (not active)
SMILES: CCC(C)NCCOc1cc(C)cc(C)c1C (stereo not given)

IC50 (Prothrombin): 17.5 µM (active)
SMILES: COc1ccc(N(C(=O)c2ccco2)S(=O)(=O)c2ccc(F)cc2)cc1

IC50 [8]: 64.3 µM (active)
AC50 [4]: 4.32 µM (active)
SMILES: CN1CCN(CCCNCc2cn(CCC#N)c3ccccc23)CC1

EC50 (Kallikrein-7): 20.8 µM (inactive)
SMILES: COC(=O)c1ccc(C2C(C#N)=C(C)N=C3CC(C)(C)CC(O)=C32)cc1 (stereo not given)

EC50 (Kallikrein-7): > 69.5 µM (inactive)
SMILES: COc1ccc(-c2ccc3nnc(SCC(=O)N4CCCC4)n3n2)cc1

EC50 (Kallikrein-7): > 69.5 µM (inactive)
SMILES: N#Cc1c(NC(=O)COC(=O)c2nccnc2N)sc2c1CCCC2
